Source: patent publication US9278982B2, “Targeting human thymidylate kinase induces DNA repair toxicity in malignant tumor cells” (NATIONAL YANG-MING UNIVERSITY, priority 2010, dated 2016)
Entries after “also recorded” stand apart in the source; their conditions may differ.

Legend:
HCT-116 p53−/− cells = test: γH2AX foci staining for induction of DNA damage (genomic toxicity); type: cell-based, human; details: YMU1 2 μM 2 days; FdUrd 2 μM 1 day
Source text: FIG. 14. Effect of YMU1 on genomic toxicity and DNA repair. […] After overnight, cells were exposed to doxorubicin and recovered. […]
TMPK and TS are key enzymes in dTTP synthesis and TS has been a major chemotherapy target (Garg et al., 2010). Inhibition of TS by FdUrd causes genome toxicity (Longley et al., 2003). Given the shared role of TMPK and TS in dTTP synthesis, we next compared the effects of blocking TMPK and TS by either shRNA interference or inhibitor treatment on the induction of DNA damage.
For γH2AX, Rad51 and XRCC1 staining, cells were fixed with 4% paraformaldehyde for 30 min at room temperature and were incubated with TBS (50 mM Tris-HCl, pH 7.4, 150 mM NaCl) plus 0.3% Triton X-100 for 5 min. The coverslips were blocked with MAXblock™ (Active Motif) for 1 h at 37° C., followed by staining with primary antibodies: anti-γH2AX monoclonal antibody (1:1000), anti-Rad51 polyclonal antibody (1:500) or anti-XRCC1 monoclonal antibody (1:500) overnight at 4° C. After extensive washing, cells were stained with secondary antibodies and Hoechst 33342 for 1 h at room temperature. After mounting, cells were analyzed and photographed with a Carl Zeiss fluorescence microscope equipped with AxioCam digital camera and Axio Vision Rel. 4.8 imaging software.

[1] = system: H184B5F5/M10, MCF-10A, MCF-7 and HCT-116 p53−/− cells; test: Colony assay of cell viability, YMU1 versus FdUrd; details: various concentrations thrice a week, 14 days
Experimental: (B) H184B5F5/M10 cells were seeded onto 100 mm-dish at 5,000 cells/dish. MCF-10A, MCF-7 and HCT-116 p53^−/− cells were seeded onto 6 well plate at 600 cells/well. Following overnight culture, cells were treated with various concentration of YMU1 or FdUrd thrice a week. After 14 days colonies were fixed, stained by crystal violet.
We also compared the effect of YMU1 and FdUrd on cell viability of non-tumorigenic mammary cycling cells, H184B5F5/M10 and MCF-10A and tumor lines, MCF-7 and HCT-116 p53^−/− cells.
After 14 days, colonies were fixed and stained by crystal violet and counted.

TMPK [2] = target: T1, TMPK (Homo sapiens, UniProt P23919); test: Luciferase-coupled TMPK assay; type: biochemical; parameters: GST (N, cleaved yes); made in house; host or cells: E. coli JM109 (pGEX-2T-hTMPK); details: purified hTMPK protein (0.5 μg), 10 min preincubation; listed as D7
T1 sequence (P23919 1-212): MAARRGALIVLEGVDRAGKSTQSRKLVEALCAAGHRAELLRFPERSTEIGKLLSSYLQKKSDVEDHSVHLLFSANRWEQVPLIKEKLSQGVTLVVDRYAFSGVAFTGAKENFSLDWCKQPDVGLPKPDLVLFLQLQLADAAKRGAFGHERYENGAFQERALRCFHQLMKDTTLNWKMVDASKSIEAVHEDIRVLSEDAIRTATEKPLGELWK
Experimental: FIG. 12. Identification of a novel hTMPK inhibitor. (A) A screen of TMPK inhibitor by luciferase-coupled assay. (B) The chemical structures of YMU1 (compound 21) and related molecules. (C) Effect of YMU1 and derivative compounds on hTMPK inhibition using purified hTMPK protein (0.5 μg) with 10 min preincubation prior to reaction using luciferase-coupled TMPK analysis. (D) Effect of YMU1 on activity of purified TMPK (0.5 μg) and GST-hTK1 protein (5 μg) with 10 min preincubation prior to reaction. Data represent mean±s.d. (n=4) (E) Molecular models of the TMPK-YMU1 complex. Left panel: TMPK/ATP/Mg+2; right panel: TMPK/YMU1. The TMPK is represented in surface electrostatic potential (upper) and structural ribbon (lower). ATP and YMU1 are shown in green and blue stick, respectively, with colored atom (O, red; S, yellow; P, orange). TMP is shown in white backbone and Mg+2 in purple. Arrow indicates the position of Asp15.
Based on the functional requirement of TMPK in DNA repair specifically in tumor cells with elevated level of R2 expression, we searched for inhibitors of hTMPK that might be useful in selectively sensitizing tumor cells to doxorubicin. […] The synthetic procedure and structural elucidation of YMU1 (compound 21) are described in the Methods of the Invention section of the application.
The TMPK reaction was started by adding purified hTMPK in 50 μl of TMPK assay buffer (100 mM Tris-HCl, pH 7.5, 100 mM KCl, 10 mM MgCl2, 50 μM ATP and 100 μM dTMP) in 96 wells plate at 25° C. for 10 min and terminated by adding 200 μl of DTNB (100 μM), followed by transferring 10 μl of reaction solution to a white 96-wellplate containing 90 μl of luciferase assay buffer (50 mM Glycine, 0.5 mM EDTA and 5 mM EDTA, pH 7.0, 0.1 μg of luciferase, 50 μM luciferin and 0.1% BSA). The luminescence was measured with a luminescence counter (Packard).

panel of cell lines = test: Doxorubicin sensitization, MTS viability assay, summary over the panel of cell lines; type: cell-based, human; details: all these cell lines; 72 h pre-treatment
Experimental: (§1) FIG. 16. In vitro and in vivo effect of YMU1 on doxorubicin sensitization. (A) A panel of cell lines were pre-treated with vehicle, YMU1 (compound 21), D6 (ethyl 4-(2-chloroacetyl)piperazine-1-carboxylate) or D7 (compound 28) for 3 days and were exposed to different concentration of doxorubicin for 4 h. […] The enhancement (fold) of doxorubicin sensitivity in each cell line was calculated. Data represent mean±s.d., n=3; each experiment was quadruplex. Inset indicates the IC50 value of doxorubicin in various cell lines. […] Following overnight culture, cells were refreshed with growth medium. After 14 days of culture, colonies were fixed, stained by crystal violet and counted. (C) HCT-116 p53^−/− cells were subcutaneously implanted in the right flank of Balb/c nude mice (each experimental group n=8). Arrow indicated the time of stopping drug treatment. The tumor volume was estimated as described in Methods of the Invention section. (D) After 2 weeks recovered from treatment, mice were sacrificed for tumor weight measurement. Data represent mean±s.e.m; **, P<0.01 by a two-tailed Student's t-test. (E) Ki 67 proliferation marker staining of tumor shown in left panel. Scale bar, 50 μm. (F) Model of doxorubicin sensitization by YMU1 in malignant cancer cells. Both R2/R1 and TMPK are recruited to the site of doxorubicin-induced double-strand breaks, where dATP, dGTP, dCTP, dTTP and dUTP are site-specific synthesized. Inhibition of TMPK decreases dTTP formation at DNA damage sites, causing futile DNA repair due to dUTP incorporation.
(§2) Next, various human cancer cell lines were treated with YMU1, D6 or D7 for 72 h to test the potential of TMPK inhibitor in doxorubicin sensitization. After exposure to different concentration of doxorubicin for 4 h, cells were refreshed for viability analysis after 2 days and the IC50 value for doxorubicin in each of the cell lines was determined (FIG. 16A and Table 2).
The ability of YMU1 to sensitize non-tumorigenic mammary cycling H184B5F5/M10, MCF10A, primary human mammary epithelial (HMEC) and primary renal epithelial (HREC) cells and IMR-90 embryonic lung fibroblasts to doxorubicin was much weaker.
(§3) Cells plated into a 96-well plate (10^3 cells/well) were treated and cell viability was measured by MTS assay (Promega) (Cory et al., 1991). An annexin V-fluorescein isothiocyanate (FITC) apoptosis kit (Calbiochem) was used to detect apoptosis. The cell cycle analysis was performed by staining cells with propidium iodide (PI) for fluorescence-activated cell sorter (FACS) analysis with CellQuest software.

TMPK [3] = target: T1, TMPK; test: In vitro TMPK inhibitory activity of TMPK inhibitor derivatives (inhibition yield); type: biochemical; parameters: GST (N, cleaved yes); made in house; host or cells: E. coli JM109 (pGEX-2T-hTMPK), inferred; details: 2 μM; n=3 or 6; read-out: inhibition yield, normalized to compound 21 (YMU1) = 100%
Source text: Chemical structures of the different TMPK inhibitor derivatives tested for in vitro TMPK inhibitory activity and in vivo doxorubicin sensitization activity (in MDA-MB231 cells) are depicted below.

HCC1037 = test: Doxorubicin sensitization, MTS viability assay; type: cell-based, human; details: Homo sapiens, vehicle 72 h, doxorubicin 4 h, viability after 2 days, read-out: IC50 of doxorubicin treatment, Vehicle
Experimental: as §1, §2, §3

IMR-90 = test: Doxorubicin sensitization, MTS viability assay; type: cell-based, human; details: Homo sapiens, vehicle 72 h, doxorubicin 4 h, viability after 2 days, read-out: IC50 of doxorubicin treatment, Vehicle
Experimental: as §1, §2, §3

MCF-10A = test: Doxorubicin sensitization, MTS viability assay; type: cell-based, human; details: Homo sapiens, vehicle 72 h, doxorubicin 4 h, viability after 2 days, read-out: IC50 of doxorubicin treatment, Vehicle
Experimental: as §1, §2, §3

CL-1-0 = test: Doxorubicin sensitization, MTS viability assay; type: cell-based, human; details: Homo sapiens, CL1-0, vehicle 72 h, doxorubicin 4 h, viability after 2 days, read-out: IC50 of doxorubicin treatment, Vehicle
Experimental: as §1, §2, §3

H1299 = test: Doxorubicin sensitization, MTS viability assay; type: cell-based, human; details: Homo sapiens, NCI-H1299, vehicle 72 h, doxorubicin 4 h, viability after 2 days, read-out: IC50 of doxorubicin treatment, Vehicle
Experimental: as §1, §2, §3

SaoS2 = test: Doxorubicin sensitization, MTS viability assay; type: cell-based, human; details: Homo sapiens, SAOS-2, vehicle 72 h, doxorubicin 4 h, viability after 2 days, read-out: IC50 of doxorubicin treatment, Vehicle
Experimental: as §1, §2, §3

HCT-116p53−/− = test: Doxorubicin sensitization, MTS viability assay; type: cell-based, human; details: Homo sapiens, vehicle 72 h, doxorubicin 4 h, viability after 2 days, read-out: IC50 of doxorubicin treatment, Vehicle
Experimental: as §1, §2, §3

MDA-MB468 = test: Doxorubicin sensitization, MTS viability assay; type: cell-based, human; details: Homo sapiens, MDA-MB-468, vehicle 72 h, doxorubicin 4 h, viability after 2 days, read-out: IC50 of doxorubicin treatment, Vehicle
Experimental: as §1, §2, §3

HREC = test: Doxorubicin sensitization, MTS viability assay; type: cell-based, human; details: Homo sapiens, vehicle 72 h, doxorubicin 4 h, viability after 2 days, read-out: IC50 of doxorubicin treatment, Vehicle
Experimental: as §1, §2, §3

Capan1 = test: Doxorubicin sensitization, MTS viability assay; type: cell-based, human; details: Homo sapiens, CAPAN-1, vehicle 72 h, doxorubicin 4 h, viability after 2 days, read-out: IC50 of doxorubicin treatment, Vehicle
Experimental: as §1, §2, §3

U2OS = test: Doxorubicin sensitization, MTS viability assay; type: cell-based, human; details: Homo sapiens, vehicle 72 h, doxorubicin 4 h, viability after 2 days, read-out: IC50 of doxorubicin treatment, Vehicle
Experimental: as §1, §2, §3

H184B5F5/M10 = test: Doxorubicin sensitization, MTS viability assay; type: cell-based, human; details: Homo sapiens, vehicle 72 h, doxorubicin 4 h, viability after 2 days, read-out: IC50 of doxorubicin treatment, Vehicle
Experimental: as §1, §2, §3

HMEC = test: Doxorubicin sensitization, MTS viability assay; type: cell-based, human; details: Homo sapiens, vehicle 72 h, doxorubicin 4 h, viability after 2 days, read-out: IC50 of doxorubicin treatment, Vehicle
Experimental: as §1, §2, §3

HCT-116p53+/+ = test: Doxorubicin sensitization, MTS viability assay; type: cell-based, human; details: Homo sapiens, vehicle 72 h, doxorubicin 4 h, viability after 2 days, read-out: IC50 of doxorubicin treatment, Vehicle
Experimental: as §1, §2, §3

HT-29 = test: Doxorubicin sensitization, MTS viability assay; type: cell-based, human; details: Homo sapiens, vehicle 72 h, doxorubicin 4 h, viability after 2 days, read-out: IC50 of doxorubicin treatment, Vehicle
Experimental: as §1, §2, §3

In the case of O=c1[nH]c(=O)n([C@H]2C[C@H](O)[C@@H](CO)O2)cc1F [FdUrd, 5-fluoro-2′deoxyuridine], the “induction of DNA damage (γH2AX staining)” value (HCT-116 p53−/− cells) is reported as “induced severe DNA damage” and the “death of cells in colony assay” value [1] is reported as “caused death of these cells”.

With CCOC(=O)N1CCN(C(=O)COc2nsc3nc(C)cc(C)c23)CC1 [compound 28, Ethyl 4-(2-(4,6-dimethylisothiazolo[5,4-b]pyridin-3-yloxy)acetyl)piperazine-1-carboxylate] the “inhibition against hTMPK” value (TMPK [2]) was “Neither D6 (as the piperazine fragment of YMU1) nor D7 (as the O-alkylation isomer of YMU1) showed any inhibition; also recorded: do not inhibit TMPK”, the doxorubicin sensitization effect (panel of cell lines) was “had no doxorubicin sensitization effect” and the melting point was 88 to 90 °C. It also gave an inhibition at 2 µM (TMPK [3]) of 14.7%.

Molecule COc1cccc2c1C(=O)c1c(O)c3c(c(O)c1C2=O)C[C@@](O)(C(=O)CO)C[C@@H]3O[C@H]1C[C@H](N)[C@H](O)[C@H](C)O1 [doxorubicin, reference compound] has an IC50 (HCC1037) of 5.52 ± 0.39 µM, an IC50 (IMR-90) of 14.2 ± 3.21 µM and an IC50 (MCF-10A) of 5.22 ± 0.39 µM. For the same molecule, the IC50 (CL-1-0) was 4.9 ± 0.2 µM, the IC50 (H1299) was 7.19 ± 0.77 µM and the IC50 (SaoS2) was 7.83 ± 0.02 µM. The IC50 (HCT-116p53−/−) was 4.1 ± 0.01 µM, the IC50 (MDA-MB468) was 0.25 ± 0.08 µM and the IC50 (HREC) was 22.1 ± 1.18 µM. It also gave an IC50 (Capan1) of 1.13 ± 0.02 µM, an IC50 (U2OS) of 4.58 ± 0.14 µM and an IC50 (H184B5F5/M10) of 4.15 ± 0.06 µM. It also gave an IC50 (HMEC) of 23.6 ± 1.23 µM, an IC50 (HCT-116p53+/+) of 2.66 ± 0.49 µM and an IC50 (HT-29) of 12.1 ± 1.64 µM.
